Values of other authors, collected in patent US20240301505A1, “URINARY TRACT CANCER TREATMENT GUIDED BY MUTATIONAL LANDSCAPE” (BROWN UNIVERSITY, priority 2021, published 2024).
Blank lines part the entries; values can stand above or below the molecule they belong to.

Tests used:
CHK1 = biological target: T1, CHK1 (Homo sapiens, UniProt O14757); settings: in combination with gemcitabine and irinotecan
T1 sequence (O14757 1-476): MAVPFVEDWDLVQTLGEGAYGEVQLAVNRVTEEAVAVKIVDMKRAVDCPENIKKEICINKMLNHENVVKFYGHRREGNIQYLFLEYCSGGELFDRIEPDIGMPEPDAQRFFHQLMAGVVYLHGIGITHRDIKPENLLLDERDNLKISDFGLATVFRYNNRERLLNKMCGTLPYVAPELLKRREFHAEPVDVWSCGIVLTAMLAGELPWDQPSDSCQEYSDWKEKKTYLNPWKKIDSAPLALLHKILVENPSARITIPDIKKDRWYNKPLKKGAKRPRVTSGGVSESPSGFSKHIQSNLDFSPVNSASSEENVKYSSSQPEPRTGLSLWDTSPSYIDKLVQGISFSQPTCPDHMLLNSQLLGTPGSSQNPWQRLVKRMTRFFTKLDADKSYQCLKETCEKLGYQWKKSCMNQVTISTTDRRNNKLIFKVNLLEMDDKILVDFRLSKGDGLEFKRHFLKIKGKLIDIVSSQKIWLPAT

[1] = test system: Bladder tumors with ARID1A deficiencies
[2] = test system: advanced breast cancer with mutations in PIK3CA, AKT1 or PTEN and/or PTEN loss; settings: monotherapy, patients with advanced breast cancer with mutations in PIK3CA
p21 protein expression = settings: upon treatment
CHK2 = CHK2 (Homo sapiens, UniProt O96017); settings: in combination with topotecan or camptothecin
CHK2, sequence (O96017 whole entry): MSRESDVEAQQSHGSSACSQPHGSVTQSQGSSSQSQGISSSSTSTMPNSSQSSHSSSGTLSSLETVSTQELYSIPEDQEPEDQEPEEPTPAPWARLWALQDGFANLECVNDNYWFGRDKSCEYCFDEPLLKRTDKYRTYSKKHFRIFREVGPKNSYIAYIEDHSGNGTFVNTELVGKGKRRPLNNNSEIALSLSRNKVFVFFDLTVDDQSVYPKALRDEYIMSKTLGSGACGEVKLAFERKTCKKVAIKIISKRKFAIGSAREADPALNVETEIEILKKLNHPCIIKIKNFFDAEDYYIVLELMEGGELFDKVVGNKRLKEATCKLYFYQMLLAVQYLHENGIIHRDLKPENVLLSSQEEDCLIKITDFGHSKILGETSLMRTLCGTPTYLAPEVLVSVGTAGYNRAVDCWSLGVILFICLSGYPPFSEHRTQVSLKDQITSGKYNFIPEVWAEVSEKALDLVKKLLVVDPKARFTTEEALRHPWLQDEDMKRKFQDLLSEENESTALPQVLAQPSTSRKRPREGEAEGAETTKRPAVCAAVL

[3] = test system: p21 and p53 protein expression; settings: accompanied by an increase in DNA damage and intracellular hydroxyl radicals

Structure (SMILES): Nc1ccc(-c2ccccc2)cc1 [4-ABP, 4-Aminobiphenyl]
- mutations induced occurring at G:C base pairs (G:C base pairs): 82.9%

- anti-tumor activity (CHK1): showed anti-tumor activity
Structure (SMILES): COc1cc(Nc2cnc(C#N)c(O[C@H](C)CN(C)C)n2)ncc1-c1cnn(C)c1 [CCT244747]

Structure (SMILES): CC[C@H](C)n1cc(C)c2c(C(=O)NCc3c(C)cc(C)[nH]c3=O)cc(-c3ccc(N4CCNCC4)nc3)cc21 [GSK-126]
- sensitivity of tumors [1]: sensitive

Structure (SMILES): NC1(c2ccc(-c3nc4ccn5c(=O)[nH]nc5c4cc3-c3ccccc3)cc2)CCC1 [MK-2206]
- clinical activity [2]: limited clinical activity

Structure (SMILES): CCCCN(CCCCO)N=O [N-butyl-N-(4-hydroxybutyl)nitrosamine]
- p21 protein expression (p21 protein expression): decrease in p21 protein expression

- activity in combination (CHK2): showed enhanced activity
Structure (SMILES): C/C(=N\N=C(N)N)c1ccc(NC(=O)c2cc3cccc([N+](=O)[O-])c3[nH]2)cc1 [PV1019]

Structure (SMILES): Nc1ccc(-c2ccc(N)cc2)cc1 [benzidine]
- p21 mRNA levels (p21): downregulate p21 mRNA levels
- p21 protein levels (p21): decrease p21 protein levels

Structure (SMILES): C[As](C)(O)=S [dimethylmonothioarsinic acid]
- p21 and p53 protein expression [3]: decrease in both p21 and p53 protein expression
